Source: patent US10857105B2, “Compounds and compositions for intracellular delivery of therapeutic agents” (ModernaTX, Inc., priority 2017, dated 2020)

How the values were obtained:
[1] = Encapsulation efficiency of RNA in nanoparticle compositions (RIBOGREEN assay); assay type: physicochemical; conditions: Table 1A; lipid:DSPC:cholesterol:PEG-DMG 50:10:38.5:1.5 mol %
Outline: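 Lipid nanoparticles (ionisable lipid:DSPC:cholesterol:PEG-DMG 50:10:38.5:1.5 mol %) carrying N1-methylpseudouridine luciferase or hEPO mRNA diluted to about 5 μg/mL in TE, pH 7.5, with or without 2% Triton X-100, 15 min at 37° C. RiboGreen fluorescence (ex ~480, em ~520 nm) blank-subtracted; free RNA = intact/disrupted signal.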

[2] = tested on: modified luciferase; assay: Luciferase expression in liver, lung, spleen and femur 6 hours after intravenous administration to mice; assay type: in vivo; conditions: 6 hours after intravenous 0.5 mpk, mice
Outline: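 Mice (n=3) got a single 0.5 mpk IV dose of each nanoparticle composition, with MC3 and PBS controls alongside. Organ luminescence flux was read 6 h post-dose.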

[3] = tested on: IL-6, IP-10; assay: Cytokine induction (IL-6, IP-10) in mice 6 hours after intravenous administration; assay type: in vivo; set-up: unit not given here; conditions: intravenous 0.5 mpk
Outline: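 IL-6 and IP-10 concentrations determined 6 hours after a single intravenous 0.5 mpk dose of lipid nanoparticle formulation in mice, with MC3 and PBS as comparators.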

[4] = Chemical stability of lipids in ethanol at room temperature and 37° C. (lipid purity); assay type: physicochemical
Method: Ester linkages were previously reported to trigger metabolism by esterases in vivo. (See Fukami, T. et al. Drug Metab. Pharmacokinet. 2012, 27, 466-477, the content of which is incorporated by reference herein in its entirety). […] (See Maier M. A., Mol. Ther. 2013, 21, 1570-1578, the content of which is incorporated herein in its entirety) First, the chemical stability of the lipids was evaluated by measuring ethanol stability at room temperature and 37° C. (Table 39). […] LNPs formed with compound 138 were larger, with a surface pKa>7. […] Removal of one ester function (compound 136) afforded LNPs with improved physiochemical characteristics and lower LNP surface pKa.

[5] = Lipid clearance: mouse liver tissue level and % dose remaining in liver after intravenous administration; assay type: in vivo; conditions: mouse, liver, 0.5 mg/kg
[6] = Particle size and polydispersity index of nanoparticle compositions (Zetasizer Nano ZS); assay type: physicochemical
Outline: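 Formulations of ionizable lipid, DSPC, cholesterol and PEG-DMG (50:10:38.5:1.5 mol %) carrying Luc or hEPO mRNA with all uridines as N1-methyl pseudouridine. Dynamic light scattering in 1×PBS gave particle size and polydispersity; zeta potential read in 15 mM PBS.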

[7] = tested on: luciferase (Luc) mRNA; assay: Luciferase expression (whole body bioluminescence) after intravenous administration to mice; assay type: in vivo; conditions: Table 3G, intravenous, luciferase, 6 hr. timepoint, relative to MC3
Outline: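 Luc mRNA nanoparticles were given IV at 0.5 mg/kg to groups of six mice, and whole-body bioluminescent flux was imaged 3, 6 and 24 h post-dose. Flux AUC for each lipid formulation was reported as a ratio to the MC3 reference formulation.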

[8] = Table 1A, lipid:DSPC:cholesterol:PEG-DMG 50:10:38.5:1.5 mol %
[9] = Table 1D, compositions for subcutaneous administration, # formulated with hEPO mRNA

SMILES | EE [1] | Total Flux, Femur [2] | Total Flux, Liver [2] | Total Flux, Lung [2] | Total Flux, Spleen [2] | Cytokine induction, IL-6 [3] | Cytokine induction, IP-10 [3] | Lipid Purity, t = 96 h, 25° C. [4] | Lipid Purity, t = 96 h, 37° C. [4] | Lipid Purity, t = 0 [4] | concentration at 6 h [5] | concentration at 24 h [5] | Size [6, 8] | Size [6, 9] | Novel lipid/MC3 ratio, i.v. [7]
CCCCC/C=C\C/C=C\CCCCCCCCN(CCO)CCCCCCCC(=O)OCCCCCCCCC [Compound 136, Nonyl 8-((2-hydroxyethyl)((9Z,12Z)-octadeca-9,12-dien-1-yl)amino)octanoate] | 90.9% | 6.60E+05 | 1.34E+08 | 8.91E+05 | 2.77E+07 | 28.69 | 887.91 | 93.17% | 93.86% | 91.81% |  |  |  |  | 
CCCCCCCCCOC(=O)C(C)CCCCCCN(CCO)CCCCCCCC(=O)OC(CCCCCCCC)CCCCCCCC (centres unmarked) [Compound 164, Nonyl 8-((8-(heptadecan-9-yloxy)-8-oxooctyl)(2-hydroxyethyl)amino)-2-methyloctanoate] | 91.2% |  |  |  |  |  |  |  |  |  | 36000 ng/g | 24200 ng/g | 84.5 nm | 75.7 nm | 1.24
CCCCCCCCCC(=O)OC(C)CCCCCCN(CCO)CCCCCCCOC(=O)C(CCCCCCCC)CCCCCCCC (centres unmarked) [Compound 165, 7-((7-(Decanoyloxy)octyl)(2-hydroxyethyl)amino)heptyl 2-octyldecanoate] | 92.9% |  |  |  |  |  |  |  |  |  | 26900 ng/g | 11700 ng/g | 84.6 nm | 74.3 nm | 2.12
CCCCCCCCCOC(=O)CCCCCCCN(CCO)CCCCCCCC(=O)OCCCCCCCCC [compound 138, Dinonyl 8,8′-((2-hydroxyethyl)azanediyl)dioctanoate] | 91.8% | 1.58E+05 | 3.66E+06 | 9.47E+04 | 4.04E+06 | 23.38 | 172.56 | 98.64% | 97.82% | 97.59% |  |  |  |  | 
